Like-named read-outs stand apart in the source and are kept apart here.
Experiments:
[1] = test system: Mino cells; experiment: Antiproliferative effect, MTS cell viability assay, Mino cells; type: cell-based; settings: Homo sapiens, Mino mantle cell lymphoma cells, read-out: IC50 (anti-proliferation) Mino cells
Outline: (§1)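 MTS read-out, A490 of formazan from metabolically active cells; compound 0–10 μM (0, 0.001, 0.01, 0.1, 1, 10 μM), 72 h exposure.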

[2] = test system: JeKo-1 cells; experiment: Antiproliferative effect, MTS cell viability assay, JeKo-1 cells; type: cell-based; settings: Homo sapiens; JeKo-1 mantle cell lymphoma cells; read-out: IC50 (anti-proliferation) JeKO-1 cells
Outline: as §1

[3] = biological target: BTK (Homo sapiens, UniProt Q06187); experiment: Degradation of BTK protein in Namalwa cells (Western blot; DC50, Dmax); settings: for DC50: cell line not given
Chain of BTK (Q06187 whole entry): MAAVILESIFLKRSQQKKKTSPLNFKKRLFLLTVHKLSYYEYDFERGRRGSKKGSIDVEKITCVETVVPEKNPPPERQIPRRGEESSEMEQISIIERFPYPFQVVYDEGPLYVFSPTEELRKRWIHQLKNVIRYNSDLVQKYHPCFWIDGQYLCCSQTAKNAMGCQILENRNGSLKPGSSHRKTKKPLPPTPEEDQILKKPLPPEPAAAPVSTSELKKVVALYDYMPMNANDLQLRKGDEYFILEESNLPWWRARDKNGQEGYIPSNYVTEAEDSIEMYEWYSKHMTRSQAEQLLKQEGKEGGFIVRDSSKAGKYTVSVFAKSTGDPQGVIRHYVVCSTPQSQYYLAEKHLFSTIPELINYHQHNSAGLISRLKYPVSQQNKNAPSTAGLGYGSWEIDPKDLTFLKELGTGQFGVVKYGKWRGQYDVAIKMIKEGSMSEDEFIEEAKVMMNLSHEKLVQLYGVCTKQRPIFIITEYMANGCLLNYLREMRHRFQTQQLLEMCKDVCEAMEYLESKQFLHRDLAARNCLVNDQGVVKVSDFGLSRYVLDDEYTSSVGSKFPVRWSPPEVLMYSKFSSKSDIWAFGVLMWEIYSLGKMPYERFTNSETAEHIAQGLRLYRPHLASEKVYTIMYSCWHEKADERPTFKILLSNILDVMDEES

[4] = read-out: DC50 (BTK degradation), concentration giving 50% reduction of BTK expression level
[5] = read-out: Dmax (BTK degradation)

Q: What does the source list for `Nc1ncnc2c1c(-c1ccc(Oc3ccccc3)cc1)nn2C1CCN(C2CCN(CCCC#Cc3ccc(N4CCC(=O)NC4=O)cc3)CC2)CC1` [Compound 534, 1-(4-(5-(4-(4-amino-3-(4-phenoxyphenyl)-1H-pyrazolo[3,4-d]pyrimidin-1-yl)-[1,4′-bipiperidin]-1′-yl)pent-1-yn-1-yl)phenyl)dihydropyrimidine-2,4(1H,3H)-dione]?
A: IC50 ([1]; MINO): > 10000 nM; IC50 [2]: > 10000 nM; DC50 [3, 4]: > 50 nM; Dmax [3, 5]: > 50%

Q: `NC(=O)c1c(-c2ccc(Oc3ccccc3)cc2)nn2c1NCC[C@H]2C1CCN(CC2CCN(CCN3CCC(c4ccc5c(c4)C(=O)N(C4CCC(=O)NC4=O)C5=O)CC3)CC2)CC1` (stereo partly drawn) [Compound 335, (7S)-7-(1-((1-(2-(4-(2-(2,6-dioxopiperidin-3-yl)-1,3-dioxoisoindolin-5-yl)piperidin-1-yl)ethyl)piperidin-4-yl)methyl)piperidin-4-yl)-2-(4-phenoxyphenyl)-4,5,6,7-tetrahydropyrazolo[1,5-a]pyrimidine-3-carboxamide] was tested. Which IC50 ([1]; MINO) did it give?
A: 1000 to 10000 nM

Q: And the IC50 [2]?
A: 1000 to 10000 nM

Q: What about the Dmax [3] of the same molecule?
A: > 75%

Q: And the DC50 ([3]; BTK degradation)?
A: > 50 nM

Q: With `Nc1ncnc2c1c(-c1ccc(Oc3ccccc3)cc1)nn2C1CCN(C[C@@H]2CCN(C[C@H]3CCN(c4ccc5c(c4)C(=O)N(C4CCC(=O)NC4=O)C5=O)C3)C2)CC1` (stereo partly drawn) [Compound 447d, 5-((R)-3-(((S)-3-((4-(4-amino-3-(4-phenoxyphenyl)-1H-pyrazolo[3,4-d]pyrimidin-1-yl)piperidin-1-yl)methyl)pyrrolidin-1-yl)methyl)pyrrolidin-1-yl)-2-(2,6-dioxopiperidin-3-yl)isoindoline-1,3-dione] as the molecule, how does the IC50 ([1]; MINO) read?
A: 1000 to 10000 nM

Q: What about the IC50 [2] of the same molecule?
A: 1000 to 10000 nM

Q: What about the DC50 [3, 4] of the same molecule?
A: 10 to 50 nM

Q: What about the Dmax [3, 5] of the same molecule?
A: > 90%

Q: `NC(=O)c1c(-c2ccc(Oc3ccccc3)cc2)nn2c1NCC[C@H]2C1CCN(CC2CCN(C(=O)N3CCC(CN4CCC(c5ccc6c(c5)CN(C5CCC(=O)NC5=O)C6=O)CC4)CC3)CC2)CC1` (stereo partly drawn) [Compound 416, (7S)-7-(1-((1-(4-((4-(2-(2,6-dioxopiperidin-3-yl)-1-oxoisoindolin-5-yl)piperidin-1-yl)methyl)piperidine-1-carbonyl)piperidin-4-yl)methyl)piperidin-4-yl)-2-(4-phenoxyphenyl)-4,5,6,7-tetrahydropyrazolo[1,5-a]pyrimidine-3-carboxamide] was tested. Which IC50 ([1]; MINO) did it give?
A: 1000 to 10000 nM

Q: And the IC50 [2]?
A: 1000 to 10000 nM

Q: What about the DC50 [3, 4] of the same molecule?
A: 10 to 50 nM

Q: What about the Dmax [3, 5] of the same molecule?
A: > 75%

Q: How did the IC50 ([1]; MINO) turn out when `Nc1ncnc2c1c(-c1ccc(Oc3ccccc3)cc1)nn2C1CCN(CCN2CCC(CC3CCN(c4ccc(NC5CCC(=O)NC5=O)cc4)CC3)C2)CC1` (stereo not drawn) [Compound 564, 3-((4-(4-((1-(2-(4-(4-amino-3-(4-phenoxyphenyl)-1H-pyrazolo[3,4-d]pyrimidin-1-yl)piperidin-1-yl)ethyl)pyrrolidin-3-yl)methyl)piperidin-1-yl)phenyl)amino)piperidine-2,6-dione] was run?
A: < 1000 nM

Q: What about the IC50 [2] of the same molecule?
A: < 1000 nM

Q: And the DC50 [3, 4]?
A: 10 to 50 nM

Q: And the Dmax [3, 5]?
A: > 90%

Q: `NC(=O)c1c(-c2ccc(Oc3ccccc3)cc2)nn2c1NCCC2C1CCN(C2CCN(C(=O)N3CCC(N4CCN(c5ccc6c(c5)CN(C5CCC(=O)NC5=O)C6=O)CC4)CC3)CC2)CC1` (stereo not drawn) [Compound 342, 7-(1′-(4-(4-(2-(2,6-dioxopiperidin-3-yl)-1-oxoisoindolin-5-yl)piperazin-1-yl)piperidine-1-carbonyl)-[1,4′-bipiperidin]-4-yl)-2-(4-phenoxyphenyl)-4,5,6,7-tetrahydropyrazolo[1,5-a]pyrimidine-3-carboxamide] was tested. Which IC50 ([1]; MINO) did it give?
A: < 1000 nM

Q: What about the IC50 [2] of the same molecule?
A: < 1000 nM

Q: What about the Dmax [3] of the same molecule?
A: > 90%

Q: What about the DC50 ([3]; BTK degradation) of the same molecule?
A: < 10 nM

Q: How did the IC50 ([1]; MINO) turn out when `Nc1ncnc2c1c(-c1ccc(Oc3ccccc3)cc1)nn2C1CCN(C2CCN(CCC3CCN(c4ccc5c(c4)CN(C4CCC(=O)NC4=O)C5=O)CC3)CC2)CC1` (stereo not drawn) [Compound 216, 3-(5-(4-(2-(4-(4-amino-3-(4-phenoxyphenyl)-1H-pyrazolo[3,4-d]pyrimidin-1-yl)-[1,4′-bipiperidin]-1′-yl)ethyl)piperidin-1-yl)-1-oxoisoindolin-2-yl)piperidine-2,6-dione] was run?
A: < 1000 nM

Q: What about the IC50 [2] of the same molecule?
A: < 1000 nM

Q: And the Dmax [3]?
A: > 75%

Q: And the DC50 ([3]; BTK degradation)?
A: 10 to 50 nM

Q: How did the IC50 ([1]; MINO) turn out when `Nc1ncnc2c1c(-c1ccc(Oc3ccccc3)cc1)nn2[C@@H]1CCCN(C(=O)N2CC(N3CCN(c4ccc5c(c4)C(=O)N([C@@H]4CCC(=O)NC4=O)C5=O)CC3)C2)C1` [Compound 491, 5-(4-(1-((R)-3-(4-amino-3-(4-phenoxyphenyl)-1H-pyrazolo[3,4-d]pyrimidin-1-yl)piperidine-1-carbonyl)azetidin-3-yl)piperazin-1-yl)-2-((R)-2,6-dioxopiperidin-3-yl)isoindoline-1,3-dione] was run?
A: < 1000 nM

Q: And the IC50 [2]?
A: < 1000 nM

Q: What about the DC50 [3, 4] of the same molecule?
A: 10 to 50 nM

Q: And the Dmax [3, 5]?
A: > 90%

Q: What does the source list for `Nc1ncnc2c1c(-c1ccc(Oc3ccccc3)cc1)nn2C1CCN(C2CCN(CCCC3CCN(c4ccc5c(c4)C(=O)N(C4CCC(=O)NC4=O)C5=O)CC3)CC2)CC1` (stereo not drawn) [Compound 225, 5-(4-(3-(4-(4-amino-3-(4-phenoxyphenyl)-1H-pyrazolo[3,4-d]pyrimidin-1-yl)-[1,4′-bipiperidin]-1′-yl)propyl)piperidin-1-yl)-2-(2,6-dioxopiperidin-3-yl)isoindoline-1,3-dione]?
A: IC50 ([1]; MINO): > 10000 nM; IC50 [2]: > 10000 nM; Dmax [3]: > 75%; DC50 ([3]; BTK degradation): > 50 nM

Q: `Nc1ncnc2c1c(-c1ccc(Oc3ccccc3)cc1)nn2C1CCN(C[C@H]2CCN(CC3CN(CC4CN(c5ccc6c(c5)C(=O)N(C5CCC(=O)NC5=O)C6=O)C4)C3)C2)CC1` (stereo partly drawn) [Compound 427a, 5-(3-((3-(((R)-3-((4-(4-amino-3-(4-phenoxyphenyl)-1H-pyrazolo[3,4-d]pyrimidin-1-yl)piperidin-1-yl)methyl)pyrrolidin-1-yl)methyl)azetidin-1-yl)methyl)azetidin-1-yl)-2-(2,6-dioxopiperidin-3-yl)isoindoline-1,3-dione] was tested. Which IC50 ([1]; MINO) did it give?
A: 1000 to 10000 nM

Q: And the IC50 [2]?
A: 1000 to 10000 nM

Q: What about the DC50 [3, 4] of the same molecule?
A: > 50 nM

Q: What about the Dmax [3, 5] of the same molecule?
A: > 90%

Q: What does the source list for `NC(=O)c1c(-c2ccc(Oc3ccccc3)cc2)nn2c1NCC[C@H]2C1CCN(CC2CCN(CC3CCN(c4ccc5c(c4)CN(C4CCC(=O)NC4=O)C5=O)CC3)CC2)CC1` (stereo partly drawn) [Compound 330, (7S)-7-(1-((1-((1-(2-(2,6-dioxopiperidin-3-yl)-1-oxoisoindolin-5-yl)piperidin-4-yl)methyl)piperidin-4-yl)methyl)piperidin-4-yl)-2-(4-phenoxyphenyl)-4,5,6,7-tetrahydropyrazolo[1,5-a]pyrimidine-3-carboxamide]?
A: IC50 ([1]; MINO): 1000 to 10000 nM; IC50 [2]: 1000 to 10000 nM; Dmax [3]: > 75%; DC50 ([3]; BTK degradation): 10 to 50 nM

Q: Which results are given for `Nc1ncnc2c1c(-c1ccc(Oc3ccccc3)cc1)nn2C1CCN(C2CCN(C(=O)N3CCN(CCCN4CCN(c5ccc6c(c5)CN(C5CCC(=O)NC5=O)C6=O)CC4)CC3)CC2)CC1` (stereo not drawn) [Compound 258, 3-(5-(4-(3-(4-(4-(4-amino-3-(4-phenoxyphenyl)-1H-pyrazolo[3,4-d]pyrimidin-1-yl)-[1,4′-bipiperidine]-1′-carbonyl)piperazin-1-yl)propyl)piperazin-1-yl)-1-oxoisoindolin-2-yl)piperidine-2,6-dione]?
A: IC50 ([1]; MINO): 1000 to 10000 nM; IC50 [2]: > 10000 nM; Dmax [3]: > 75%; DC50 ([3]; BTK degradation): 10 to 50 nM

Q: `Nc1ncnc2c1c(-c1ccc(Oc3ccccc3)cc1)nn2[C@@H]1CCCN(C(=O)CCCN2CCN(c3ccc4c(c3)C(=O)N(C3CCC(=O)NC3=O)C4=O)CC2)C1` (stereo partly drawn) [Compound 525, 5-(4-(4-((R)-3-(4-amino-3-(4-phenoxyphenyl)-1H-pyrazolo[3,4-d]pyrimidin-1-yl)piperidin-1-yl)-4-oxobutyl)piperazin-1-yl)-2-(2,6-dioxopiperidin-3-yl)isoindoline-1,3-dione] was tested. Which IC50 ([1]; MINO) did it give?
A: 1000 to 10000 nM

Q: And the IC50 [2]?
A: < 1000 nM

Q: And the DC50 [3, 4]?
A: < 10 nM

Q: And the Dmax [3, 5]?
A: > 90%

Q: Which results are given for `Nc1ncnc2c1c(-c1ccc(Oc3ccccc3)cc1)nn2[C@@H]1CCCN(C2CN(C(=O)N3CC(N4CCN(c5ccc6c(c5)C(=O)N(C5CCC(=O)NC5=O)C6=O)CC4)C3)C2)C1` (stereo partly drawn) [Compound 479, 5-(4-(1-(3-((R)-3-(4-amino-3-(4-phenoxyphenyl)-1H-pyrazolo[3,4-d]pyrimidin-1-yl)piperidin-1-yl)azetidin-1-carbonyl)azetidin-3-yl)piperazin-1-yl)-2-(2,6-dioxopiperidin-3-yl)isoindoline-1,3-dione]?
A: IC50 ([1]; MINO): 1000 to 10000 nM; IC50 [2]: 1000 to 10000 nM; DC50 [3, 4]: < 10 nM; Dmax [3, 5]: > 90%

Q: Which results are given for `Nc1ncnc2c1c(-c1ccc(Oc3ccccc3)cc1)nn2C1CCN(CCN2CCC(CN3CCN(c4ccc(N5CCC(=O)NC5=O)cc4)CC3)C2)CC1` (stereo not drawn) [Compound 549, 1-(4-(4-((1-(2-(4-(4-amino-3-(4-phenoxyphenyl)-1H-pyrazolo[3,4-d]pyrimidin-1-yl)piperidin-1-yl)ethyl)pyrrolidin-3-yl)methyl)piperazin-1-yl)phenyl)dihydropyrimidine-2,4(1H,3H)-dione]?
A: IC50 ([1]; MINO): < 1000 nM; IC50 [2]: < 1000 nM; DC50 [3, 4]: < 10 nM; Dmax [3, 5]: > 90%

Q: What does the source list for `Nc1ncnc2c1c(-c1ccc(Oc3ccccc3)cc1)nn2C1CCN(CC2CCN(CC3CCN(c4ccc5c(c4)CN(C4CCC(=O)NC4=O)C5=O)CC3)C2)CC1` (stereo not drawn) [Compound 446, 3-(5-(4-((3-((4-(4-amino-3-(4-phenoxyphenyl)-1H-pyrazolo(3,4-d)pyrimidin-1-yl)piperidin-1-yl)methyl)pyrrolidin-1-yl)methyl)piperidin-1-yl)-1-oxoisoindolin-2-yl)piperidine-2,6-dione]?
A: IC50 [1]: 1000 to 10000 nM; IC50 [2]: 1000 to 10000 nM; degradation of BTK protein ([3]; Namalwa B lymphocyte cells, various concentrations, 24 hours, Western blot): dose-dependent degradation; DC50 [3, 4]: 10 to 50 nM; Dmax [3, 5]: > 90%

Q: Which IC50 ([1]; MINO) does the source give for `Nc1ncnc2c1c(-c1ccc(Oc3ccccc3)cc1)nn2C1CCN(CCC#Cc2ccc(N3CCC(=O)NC3=O)cc2)CC1` [Compound 540, 1-(4-(4-(4-(4-amino-3-(4-phenoxyphenyl)-1H-pyrazolo[3,4-d]pyrimidin-1-yl)piperidin-1-yl)but-1-yn-1-yl)phenyl)dihydropyrimidine-2,4(1H,3H)-dione] here?
A: > 10000 nM

Q: And the IC50 [2]?
A: > 10000 nM

Q: And the DC50 [3, 4]?
A: > 50 nM

Q: And the Dmax [3, 5]?
A: > 50%

Reference: US12139492B2 (Endotarget Inc., priority 2021, dated 2024)
